Assay [1] in a line: Calcein dye release from liposomes. Format: biochemical. The note with it: 10 μM peptide, 1 min, Tris buffer pH 7.4, room temperature; for permeabilisation (calcein dye release): fluorescence; for dye release: cardiolipin 40 mol%. An excerpt: Large unilamellar vesicles (LUVs) were used for isothermal titration calorimetry studies and prepared as described before. […] As CL potentially carries two negative charges it was applied at half POPG concentrations to give liposomes with identical surface charge. Subsequently, chloroform was evaporated under nitrogen stream and obtained lipid films were dried under high vacuum for several hours and rehydrated in phosphate buffer by thorough vortexing. The solution was heated 2–3 times in a water bath to 40°C to facilitate resuspension. POPE-LUVs were obtained after 35-fold extrusion through two stacked polycarbonate membranes (100 nm pore size) using a mini extruder (Avestin, Switzerland). The procedure gives vesicles with a diameter of 90–120 nm as determined with dynamic light scattering (DLS) performed on a Zetasizer Nano ZS ZEN 3600 (Malvern Instruments, UK). Large liposomes for dye release experiments were prepared with a solution of 80 mM calcein in 10 mM Tris buffer, 0.1 mM EDTA, pH 7.4 and treated to remove non-incorporated dye as described before.
Peptide-induced calcein release was monitored fluorimetrically by measuring the time-dependent decrease in self-quenching (ex 490 nm, em 514 nm) at room temperature on a LS 50B spectrofluorimeter (Perkin Elmer, Germany) as described before. Lipid concentration was 25 μM in Tris buffer (10 mM Tris, 154 mM NaCl, pH 7.4) and peptide concentrations ranged from 1 to 200 μM. The fluorescence intensity corresponding to 100% release was determined by addition of a 10% Triton X-100 solution. In this study, calcein release was analysed after 1 min of incubation with 10 μM peptide and 25 μM liposomal suspensions.

Assay [2] deals with B. subtilis L-170 (cell wall-deficient L-form). Format: cell-based. The note with it: microdilution, 96-well, 0.05 to 100 μM peptide, BHI with supplements, OD550 0.4, 18 hours, 37°C; triplicates, at least three independent experiments. As for the experimental part: (§1) For L-form bacteria BHI medium was supplemented with […] penicillin and additional 50 mg/ml sucrose and 30 mg/ml yeast extract in the case of B. subtilis L-170. L-form cells were cultivated as described above using flat bottom glass flasks and OD was measured at 550 nm (OD550 = 1 corresponds to 3.92 × 10^8 CFU/ml L-170 and 9.75 × 10^8 CFU/ml L-WF+).
(§2) To determine the minimal inhibitory peptide concentration (MIC) of bacterial growth we applied a microdilution technique as described previously. Briefly, the antimicrobial activity was tested against L-form bacteria in 96-well plates with final peptide concentrations ranging from 0.05 to 100 μM. Cultures were diluted to OD550 0.4 in BHI containing strain-specific supplements. Cells were grown for 18 hours at 37°C and 180 rpm. Peptide activity was tested in triplicates in at least three independent experiments.
(In general: Broth dilution looks for growth in wells or tubes with falling amounts of substance.)

Assay [3] concerns E. coli L-WF+ (cell wall-deficient L-form, W1655 F+). In kind it is cell-based. The note with it: microdilution, 96-well, 0.05 to 100 μM peptide, BHI with supplements, OD550 0.4, 18 hours, 37°C; triplicates, at least three independent experiments. As for the experimental part:
as §1, §2

For assay [4], the system named is B. subtilis DSM 347. The note with it: microdilution; reported before; cited from earlier work.
For assay [5], the system named is B. subtilis 168. The experiment in a line: Cardiolipin staining with NAO, fluorescence microscopy. In kind it is cell-based. The note with it: 500 nM NAO 60 min, then 12 μM peptide 30 min, room temperature; 520 and 640 nm. As for the experimental part:
Cells were first incubated with the dye for 60 minutes in the dark, at room temperature at 600 rpm (ensuring sufficient aeration). Afterwards, cWFW was added at a final concentration of 12 μM and co-incubated with NAO for another 30 minutes under the same conditions.
Specific staining of CL with NAO has been shown before and is neither influenced by fixation nor depolarisation of the membrane. The emission shift from green to red fluorescence (513 nm to 640 nm) was reported to be exclusive for binding to CL and is caused by narrow stacking of dye molecules. Images were captured using a Zeiss Axiovert M200 inverted fluorescence microscope and an LSM 510 ConfoCor2 (Germany) with plan-apochromat 63, 100×/1.4 objective, respectively, and processed with ImageJ.

Assay [6] can be described thus: ITC binding to LUVs. Details: species or system E. coli. The note with it: 25°C. As for the experimental part:
The lipid concentration of E. coli extract preparations was determined from dried lipid films by gravimetric analysis. Liposomes were prepared after resuspension in phosphate buffer and sonication on ice for 25 min under nitrogen stream using a Labsonic L ultrasonicator (B. Braun Biotech, Germany) followed by centrifugation for 5 min at 11000 × g (Eppendorf MiniSpin, Germany) to remove potential titanium debris. The diameter of LUVs from E. coli extract was 90 nm. According to manufacturer's data, E. coli polar lipid extract is a three component mixture containing 71.4% PE-, 23.4% PG-lipids and 5.2% CL (mol%).
High-sensitivity isothermal titration calorimetry (ITC) experiments to characterise peptide interaction with model membranes were performed at 25°C on a VP-ITC instrument (MicroCall, Malvern Instruments, UK). Binding data were generated as described before. Prior to use, solutions were gently degassed under vacuum. 10 μl aliquots of 5 to 10 mM lipid vesicles were titrated into a 40 μM peptide solution inside the calorimeter cell (1.4 ml) while the reaction mixture was continuously stirred at 307 rpm. Time intervals between injections were adjusted to 10 min which was sufficient for the heat signal to return to baseline level. Automated baseline adjustment and peak integration were accomplished with the public-domain software NITPIC [32].
Binding parameters, such as hydrophobic partition coefficient (K 0) and enthalpy of binding (ΔH°), were derived by applying a surface partition equilibrium under the specific condition that peptide adsorption is linearly related to the peptide concentration immediately above the membrane surface. This concentration in close proximity to the membrane is determined by electrostatic interactions and depends on the bulk concentration of peptide, peptide charge and membrane surface potential. Negatively charged lipid layers attract cationic peptides. Consequently, the membrane surface concentration is enhanced compared to that in the bulk solution. After binding of cationic peptides to an electrically neutral membrane it becomes positively charged which results in a repulsion of further peptides from the membrane surface. Using the Gouy—Chapman theory which accounts for electrostatic effects, it is possible to calculate the peptide surface concentration and to determine the partition coefficient K 0 [33]. Nonlinear least-squares data fitting was performed with Excel 2010 (Microsoft) using the Solver add-in (Frontline Systems). The Gibbs free energy was calculated according to ΔG° = -RT ln(55.5 M × K 0), where 55.5 M is the molar concentration of water in the aqueous phase. Finally, the entropic contribution to membrane partitioning,-TΔS°, was derived from the Gibbs-Helmholtz equation, ΔG° = ΔH°-TΔS°.

For assay [7], the system named is E. coli DH5α. The note with it: microdilution; reported before; cited from earlier work.

SMILES strings stand for the structures. ≈ marks a conversion by molar mass, not a printed value. Residues, ends and D or L forms follow the SMILES beside them.

Take `N=C(N)NCCC[C@@H]1NC(=O)[C@H](CCCNC(=N)N)NC(=O)[C@H](Cc2c[nH]c3ccccc23)NC(=O)[C@H](Cc2ccccc2)NC(=O)[C@H](Cc2c[nH]c3ccccc23)NC(=O)[C@H](CCCNC(=N)N)NC1=O` [cWFW] (cyclo(FWRRRW)): the peptide-induced dye release in assay [1] (CL content of 12.5% (matrix lipid not restated, follows sentence on POPE systems), 25 μM lipid) is recorded as 18%. Moreover, the “permeabilisation (calcein dye release)” value in assay [1] (PC/7.5% CL, 25 μM lipid) is 15%; in assay [1] (PC/25% PG, 25 μM lipid), 8%; in assay [1] (PE/7.5% CL, 25 μM lipid), 8%; in assay [1] (PE/25%PG, 25 μM lipid (peptide/lipid 1/2.5)), 2%. The dye release result is “more than 70%” in assay [1] (POPC-based LUVs, 25 μM lipid) and “more than 70%” in assay [1] (POPE-based LUVs, 25 μM lipid). For the same molecule, the “MIC B. subtilis L-170” value in assay [2] worked out at 6 µM (≈ 5.93 µg/mL). Further, the “MIC E. coli L-WF+” value in assay [3] amounted to 12 µM (≈ 11.9 µg/mL). Moreover, the “MIC B. subtilis DSM 347” value in assay [4] is 3 µM (≈ 2.96 µg/mL). The “effect on NAO fluorescence (cardiolipin staining)” value in assay [5] was “significant decrease in NAO fluorescence intensity at both wavelengths”. For the same molecule, the “ΔH°” value in assay [6] (10 mM LUVs into 40 μM peptide, γ = 0.6) is -3.99 kcal/mol. In addition, the “K 0 (hydrophobic partition coefficient)” value in assay [6] (10 mM LUVs titrated into 40 μM peptide, phosphate buffer pH 7.4, surface partition model, γ = 0.6) came out at 8.8e+06 M⁻¹. The “ΔG°” value in assay [6] (calculated as -RT ln(55.5 M × K 0), LUVs of E. coli extract) was -11.9 kcal/mol. For the same molecule, the “-TΔS°” value in assay [6] (from Gibbs-Helmholtz equation, LUVs of E. coli extract) was -7.86 kcal/mol. In addition, in assay [7], the “MIC E. coli DH5α” value is 3 µM (≈ 2.96 µg/mL).
